Where “and” joins values, the source holds several entries; their conditions need not be identical. Identical values can stand only once. Inconclusive results are not listed.
Tested on: nude mice, HT29 intrarenal xenograft, tumor weight T/C
Test: NCI In Vivo Anticancer Drug Screen. Data for tumor model HT29;CX-1 Human Adenocarcinoma (MER+) (intrarenal inoculation) in NU/NU Swiss (nude) mice
Conditions: endpoint: mean tumor weight change, higher = larger tumour
Method in brief: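 Tumor-bearing mice received test compound or vehicle, and tumor size or survival was recorded. Values are the treated-group measurement divided by the vehicle-treated control measurement.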

[1] = dose: 200.0 mg/kg/injection, schedule: Q04DX004 (sc), vehicle: saline with Tween-80
[2] = dose: 800.0 mg/kg/injection, schedule: Q04DX004 (sc), vehicle: saline with Tween-80
[3] = dose: 1600.0 mg/kg/injection, schedule: Q04DX004 (sc), vehicle: saline with Tween-80
[4] = dose: 50.0 mg/kg/injection, schedule: Q01DX010 (sc), vehicle: saline
[5] = dose: 100.0 mg/kg/injection, schedule: Q01DX010 (sc), vehicle: saline

CN(C)/N=N/c1nc[nH]c1C(N)=O
T/C (dose: 100.0 mg/kg/injection, schedule: Q01DX010 (sc), vehicle: Klucel (hydroxypropylcellulose) (HPC)): 90 % of control and 109 % of control
T/C (dose: 400.0 mg/kg/injection, schedule: Q01DX010 (sc), vehicle: Klucel (hydroxypropylcellulose) (HPC)): 77 % of control

Cc1ccc(S(=O)(=O)NC(=O)OC23COCN2COC3)cc1
T/C [1]: 84 % of control
T/C [2]: 153 % of control
T/C [3]: 121 % of control

CO[C@@H]1[C@H](O)CC[C@]2(CO2)[C@H]1[C@@]1(C)O[C@@H]1CC=C(C)C
T/C (dose: 75.0 mg/kg/injection, schedule: Q04DX004 (sc), vehicle: saline with Tween-80): 108 % of control
T/C (dose: 150.0 mg/kg/injection, schedule: Q04DX004 (sc), vehicle: saline with Tween-80): 179 % of control
T/C (dose: 300.0 mg/kg/injection, schedule: Q04DX004 (sc), vehicle: saline with Tween-80): 108 % of control
T/C (dose: 600.0 mg/kg/injection, schedule: Q04DX004 (sc), vehicle: saline with Tween-80): 110 % of control

C/C=C1\C[C@@H]2C(OC)Nc3cc(O)c(OC)cc3C(=O)N2C1 (stereo partly drawn)
T/C (dose: 0.25 mg/kg/injection, schedule: Q04DX004 (sc), vehicle: saline): 113 % of control
T/C (dose: 0.5 mg/kg/injection, schedule: Q04DX004 (sc), vehicle: saline): 93 % of control
T/C (dose: 2.0 mg/kg/injection, schedule: Q04DX004 (sc), vehicle: saline): 75 % of control

CN(C)N=Nc1cn[nH]c1C(N)=O
T/C (dose: 300.0 mg/kg/injection, schedule: Q04DX004 (sc), vehicle: suspension in saline): 85 % of control
T/C (dose: 600.0 mg/kg/injection, schedule: Q04DX004 (sc), vehicle: suspension in saline): 67 % of control
T/C (dose: 1200.0 mg/kg/injection, schedule: Q04DX004 (sc), vehicle: suspension in saline): 74 % of control

O=C1C(O)=C(c2ccccc2)C(=O)C(O)=C1c1ccccc1
T/C (dose: 75.0 mg/kg/injection, schedule: Q04DX004 (sc), vehicle: saline): 95 % of control
T/C (dose: 150.0 mg/kg/injection, schedule: Q04DX004 (sc), vehicle: saline): 60 % of control

NC1=NCN(C2OC(CO)C(O)C2O)C(=O)N1 (stereo not drawn)
T/C (dose: 25.0 mg/kg/injection, schedule: Q01DX010 (sc), vehicle: saline): 70 % of control
T/C [4]: 31 % of control
T/C [5]: 38 % of control

Cn1cnc([N+](=O)[O-])c1Sc1ncn[nH]1
T/C (dose: 200.0 mg/kg/injection, schedule: Q04DX004 (sc), vehicle: suspension in saline): 49 % of control

Nc1nc(/C=C(/O)c2ccccc2)c2ncn(C3OC(CO)C(O)C3O)c2n1 (stereo not drawn)
T/C (dose: 50.0 mg/kg/injection, schedule: Q04DX004 (sc), vehicle: distilled water + Tween-80): 52 % of control
T/C (dose: 100.0 mg/kg/injection, schedule: Q04DX004 (sc), vehicle: distilled water + Tween-80): 70 % of control
T/C (dose: 200.0 mg/kg/injection, schedule: Q04DX004 (sc), vehicle: distilled water + Tween-80): 155 % of control
T/C (dose: 400.0 mg/kg/injection, schedule: Q04DX004 (sc), vehicle: distilled water + Tween-80): 80 % of control

NCCc1cc(O)c(O)c(O)c1
T/C (dose: 200.0 mg/kg/injection, schedule: Q04DX004 (sc), vehicle: saline): 92 % of control
T/C (dose: 400.0 mg/kg/injection, schedule: Q04DX004 (sc), vehicle: saline): 120 % of control
T/C (dose: 800.0 mg/kg/injection, schedule: Q04DX004 (sc), vehicle: saline): 101 % of control
T/C (dose: 1600.0 mg/kg/injection, schedule: Q04DX004 (sc), vehicle: saline): 61 % of control

CN(C)C(=O)SC1=C(c2c(Cl)cccc2Cl)C(=O)c2ccccc21
T/C (dose: 300.0 mg/kg/injection, schedule: Q04DX004 (sc), vehicle: Klucel (hydroxypropylcellulose) (HPC)): 95 % of control
T/C (dose: 600.0 mg/kg/injection, schedule: Q04DX004 (sc), vehicle: Klucel (hydroxypropylcellulose) (HPC)): 158 % of control

CC(Oc1ccccc1-c1ccccc1)C(=O)N(C)C (stereo not drawn)
T/C [1]: 115 % of control
T/C (dose: 400.0 mg/kg/injection, schedule: Q04DX004 (sc), vehicle: saline with Tween-80): 63 % of control
T/C [2]: 89 % of control
T/C [3]: 55 % of control

CCCC(=O)OCc1cc(=O)n(C)c2c3c4c(cc12)c(C)cc(=O)n4CO3
T/C (dose: 200.0 mg/kg/injection, schedule: Q01DX010 (sc), vehicle: Klucel (hydroxypropylcellulose) (HPC)): 71 % of control

C(CC1CO1)C1CO1 (stereo not drawn)
T/C [4]: 35 % of control
T/C [5]: 37 % of control

Source: PubChem BioAssay AID206 (DTP/NCI, 2004)
